Reference: patent US10160948B2, “Pluripotent embryonic-like stem cells, compositions, methods and uses thereof” (ABT HOLDING COMPANY, priority 1999, dated 2018)

Tested on: phenotypic expression markers (ectodermal, mesodermal, endodermal, embryonic)
Test: Immunochemical and histochemical phenotypic analysis of human cell lines incubated with serum + insulin (I) + dexamethasone (D)
Type: cell-based
Protocol: Additional immunochemical and histochemical studies were performed with a series of human cell lines. Human cells CF-NHDF2 (derived from person dermis) were propogated to various doubling numbers (cell doublings of between 12 and 47), and examined, as above, for multiple induced mesodermal, ectodermal, endodermal and embryonic lineages. Human cells CM-SkM2 and CF-SkM2, were similarly examined, after propogation to 12 cell doublings. TABLES 7-9 provides the results of examination of the human cells CF-NHDF2 at progressive cell doublings, under different growth conditions. TABLE 10 provides the results of examination of the human cells CM-SkM2, and CF-SkM2 at progressive cell doublings, under different growth conditions.
Phenotypic Analysis. The cryopreserved cells were thawed and seeded at 1×10^3 cells per well of 1% gelatinized 96-well plates (Corning, Corning, N.Y.).15,16 The cell lines were incubated with CM only (non-induced) or CM+insulin and/or dexamethasone in a comparison/contrast analysis system to ascertain induced phenotypic expression.7,15 In this assay, insulin accelerates phenotypic expression of lineage-committed progenitor cells but has no effect on the induction of lineage-commitment and subsequent phenotypic expression in pluripotent cells.
Cells were cultured for 30-56 days in CM, CM+[…] insulin, or CM+10^−6M Dexamethasone+/−insulin+1%, 5%, or 10% horse serum. […]

insulin was tested, and the “effect on morphology and antigen staining of NHDF2 and PAL3 cells” value was “No change in morphology or change in antigen staining”.
